According to patent US7659404B2, “Broad spectrum 2-(substituted-amino)-benzothiazole sulfonamide HIV protease inhibitors” (Tibotec Pharmaceuticals Ltd., priority 2001, dated 2010):

What was measured:
virus strain F (R13025) = experiment: microbe, parasite or virus in culture; assay type: cell-based, HIV; conditions: for fold resistance (FR), strain F: FR=EC50(mutant strain)/EC50(HIV-1 strain LAI); for EC50: Human immunodeficiency virus 1, MT4, read-out: HIV-AVE-MT4-MTT-R13025-2-002 pEC50, virus strain F (R13025), MT4 cells, MTT (converted)
Method: (§1) HIV- or mock-infected MT4 cells were incubated for five days in the presence of various concentrations of the inhibitor. […] Cell viability is measured by measuring the concentration of MTT, a yellow, water soluble tetrazolium dye that is converted to a purple, water insoluble formazan in the mitochondria of living cells only. Upon solubilization of the resulting formazan crystals with isopropanol, the absorbance of the solution is monitored at 540 nm. The values correlate directly to the number of living cells remaining in the culture at the completion of the five day incubation. The inhibitory activity of the compound was monitored on the virus-infected cells and was expressed as EC50 and EC90. These values represent the amount of the compound required to protect 50% and 90%, respectively, of the cells from the cytopathogenic effect of the virus. The toxicity of the compound was measured on the mock-infected cells and was expressed as CC50, which represents the concentration of compound required to inhibit the growth of the cells by 50%. The selectivity index (SI) (ratio CC50/EC50) is an indication of the selectivity of the anti-HIV activity of the inhibitor.
(§2) Because of the increasing emergence of drug resistant HIV strains, the present compounds were tested for their potency against clinically isolated HIV strains harboring several mutations.
(§3) As a measure of the broad spectrum activity of the present compounds, the fold resistance (FR) defined as FR=EC50(mutant strain)/EC50(HIV-1 strain LAI).

virus strain S (R13080) = experiment: microbe, parasite or virus in culture; assay type: cell-based, HIV; conditions: for fold resistance (FR), strain S: FR=EC50(mutant strain)/EC50(HIV-1 strain LAI); for EC50: Human immunodeficiency virus 1, MT4, read-out: HIV-AVE-MT4-MTT-R13080-2-002 pEC50, virus strain S (R13080), MT4 cells, MTT (converted)
Method: as §1, §2, §3

[1] = system: clinically isolated HIV strain J; assay type: cell-based; conditions: FR=EC50(mutant strain)/EC50(HIV-1 strain LAI)
Method: as §1, §2, §3

[2] = system: clinically isolated HIV strain I; assay type: cell-based; conditions: FR=EC50(mutant strain)/EC50(HIV-1 strain LAI)
Method: as §1, §2, §3

[3] = system: clinically isolated HIV strain O; assay type: cell-based; conditions: FR=EC50(mutant strain)/EC50(HIV-1 strain LAI)
Method: as §1, §2, §3

[4] = system: clinically isolated HIV strain H; assay type: cell-based; conditions: FR=EC50(mutant strain)/EC50(HIV-1 strain LAI)
Method: as §1, §2, §3

[5] = system: clinically isolated HIV strain T; assay type: cell-based; conditions: FR=EC50(mutant strain)/EC50(HIV-1 strain LAI)
Method: as §1, §2, §3

wild type virus (IIIB) = experiment: HIV-AVE-MT4-MTT cellular assay, wild type virus (IIIB); assay type: cell-based; conditions: MT4 cells, MTT; for EC50: Human immunodeficiency virus 1, IIIB, MT4, wild type virus (IIIB), read-out: HIV-AVE-MT4-MTT-IIIB-2-002 pEC50 (converted)
Method: HIV- or mock-infected MT4 cells were incubated for five days in the presence of various concentrations of the inhibitor. At the end of the incubation period, all HIV-infected cells have been killed by the replicating virus in the control cultures in the absence of any inhibitor. Cell viability is measured by measuring the concentration of MTT, a yellow, water soluble tetrazolium dye that is converted to a purple, water insoluble formazan in the mitochondria of living cells only. Upon solubilization of the resulting formazan crystals with isopropanol, the absorbance of the solution is monitored at 540 nm. The values correlate directly to the number of living cells remaining in the culture at the completion of the five day incubation. The inhibitory activity of the compound was monitored on the virus-infected cells and was expressed as EC50 and EC90. These values represent the amount of the compound required to protect 50% and 90%, respectively, of the cells from the cytopathogenic effect of the virus. The toxicity of the compound was measured on the mock-infected cells and was expressed as CC50, which represents the concentration of compound required to inhibit the growth of the cells by 50%. The selectivity index (SI) (ratio CC50/EC50) is an indication of the selectivity of the anti-HIV activity of the inhibitor.

Row | SMILES | fold resistance (FR), strain F (virus strain F (R13025)) | fold resistance (FR), strain S (virus strain S (R13080)) | fold resistance (FR), strain J [1] | fold resistance (FR), strain I [2] | fold resistance (FR), strain O [3] | fold resistance (FR), strain H [4] | fold resistance (FR), strain T [5] | EC50 (virus strain F (R13025)) | EC50 (virus strain S (R13080)) | EC50 (wild type virus (IIIB)) | HIV-AVE-MT4-MTT-R13025-2-002 pEC50 (virus strain F (R13025); virus strain F (R13025), MT4 cells, MTT) | HIV-AVE-MT4-MTT-IIIB-2-002 pEC50 (wild type virus (IIIB); wild type virus (IIIB))
1 | CCOC(=O)N(CCN(C)C)c1nc2ccc(S(=O)(=O)N(CC(C)C)C[C@@H](O)[C@H](Cc3ccccc3)NC(=O)O[C@H]3CO[C@H]4OCC[C@H]43)cc2s1 [Compound 28] | 2.3 | 4.4 | 0.7 | 1.4 | 0.8 | 1.8 | 12.7 |  |  |  |  | 
2 | CC(=O)N(C)c1nc2ccc(S(=O)(=O)N(CC(C)C)C[C@@H](O)[C@H](Cc3ccccc3)NC(=O)c3cccc(N)c3C)cc2s1 [Compound 82] | 13.8 | 17.9 | 5.5 | 4.4 | 8.0 | 5.0 | 214.1 |  |  |  |  | 
3 | CC(C)CN(C[C@@H](O)[C@H](Cc1ccccc1)NC(=O)OCc1cncs1)S(=O)(=O)c1ccc2nc(NCCN3CCCC3)sc2c1 [Compound 49] | 12.8 | 17.8 | 5.5 | 2.9 | 3.9 | 3.6 | 114.0 |  |  |  |  | 
4 | CC(C)CN(C[C@@H](O)[C@H](Cc1ccccc1)NC(=O)O[C@H]1CO[C@H]2OCC[C@H]21)S(=O)(=O)c1ccc2nc(N3CCN(C)CC3=O)sc2c1 [Compound 26] | 29.6 | 34.1 | 9.2 | 6.6 | 10.6 | 20.3 | 345.6 |  |  |  |  | 
5 | CC(C)CN(C[C@@H](O)[C@H](Cc1ccccc1)NC=O)S(=O)(=O)c1ccc2nc(NC(=O)CN3CCCC3)sc2c1 [Compound 55] | 26.2 | 26.2 | 26.2 | 9.1 | 26.2 | 10.0 | 26.2 |  |  |  |  | 
6 | CC(C)CN(C[C@@H](O)[C@H](Cc1ccccc1)NC(=O)OCc1cncs1)S(=O)(=O)c1ccc2nc(N(C)C(=O)c3ccc[nH]3)sc2c1 [Compound 180] |  |  |  |  |  |  |  | 891 nM | 10000 nM | 155 nM |  | 
7 | CC(C)CN(C[C@@H](O)[C@H](Cc1ccccc1)NC(=O)OCc1cncs1)S(=O)(=O)c1ccc2nc(NC(=O)c3ccncc3)sc2c1 [Compound 168] |  |  |  |  |  |  |  | 31.6 nM | 135 nM | 24.5 nM |  | 
8 | Cc1cccc(C)c1OCC(=O)N[C@@H](Cc1ccccc1)[C@H](O)CN(CC(C)C)S(=O)(=O)c1ccc2nc(NC(=O)c3cccnc3)sc2c1 [Compound 111] |  |  |  |  |  |  |  | 234 nM | 661 nM | 24.5 nM |  | 
9 | Cc1cccc(C)c1OCC(=O)N[C@@H](Cc1ccccc1)[C@H](O)CN(CC(C)C)S(=O)(=O)c1ccc2nc(NC(=O)c3ccncc3)sc2c1 [Compound 125] |  |  |  |  |  |  |  | 26.9 nM | 145 nM | 6.31 nM |  | 
10 | CNCCNc1nc2ccc(S(=O)(=O)N(CC(C)C)C[C@@H](O)[C@H](Cc3ccccc3)NC(=O)OCc3cncs3)cc2s1 [Compound 150] |  |  |  |  |  |  |  | 162 nM | 661 nM | 42.7 nM |  | 
11 | COC(=O)CCNc1nc2ccc(S(=O)(=O)N(CC(C)C)C[C@@H](O)[C@H](Cc3ccccc3)NC(=O)OC(C)(C)C)cc2s1 [Compound 143] |  |  |  |  |  |  |  | 10000 nM | 10000 nM | 74.1 nM |  | 
12 | Cc1cccc(C)c1OCC(=O)N[C@@H](Cc1ccccc1)[C@H](O)CN(CC(C)C)S(=O)(=O)c1ccc2nc(NCc3ccncc3)sc2c1 [Compound 131] |  |  |  |  |  |  |  | 832 nM | 1050 nM | 46.8 nM |  | 
13 | Cc1cccc(C)c1OCC(=O)N[C@@H](Cc1ccccc1)[C@H](O)CN(CC(C)C)S(=O)(=O)c1ccc2nc(NC(=O)c3ccccn3)sc2c1 [Compound 112] |  |  |  |  |  |  |  |  | 151 nM |  | 6.91 | 8
